Test results published in US20070128217A1 (priority 2003, published 2007).

Key:
[1] = test system: antibodies in sera from SARS patients (sera 1a, 1b, 2, 6, 37, 62, London, SARS-yellow, SARS-green); format: binding, human; parameters: Binding of serum 6 to linear peptides of protein X1 of SARS-CoV Urbani / Binding of serum 37 to linear peptides of protein X1 of SARS-CoV Urbani / Binding of serum 6 to looped/cyclic peptide (PEPSCAN-ELISA) / Binding of serum 37 to looped/cyclic peptide (PEPSCAN-ELISA) / Binding of serum 37 to looped/cyclic peptides of protein X1 of SARS-CoV Urbani / Binding of serum 6 to linear peptides of protein X2 / Binding of serum 37 to linear peptides of protein X2 / Binding of serum 37 to looped/cyclic peptides of protein X2 of SARS-CoV Urbani / Binding of serum 6 to linear peptides of protein M of SARS-CoV Urbani / Binding of serum 37 to linear peptides of protein M of SARS-CoV Urbani / Binding of serum 6 to looped/cyclic peptides of protein M of SARS-CoV Urbani / Binding of serum 37 to looped/cyclic peptides of protein M of SARS-CoV Urbani / Binding of serum 6 to linear peptides of protein X3 of SARS-CoV Urbani / Binding of serum 37 to linear peptides of protein X3 of SARS-CoV Urbani / Binding of serum 37 to looped/cyclic peptides of protein X3 of SARS-CoV Urbani / Binding of serum 6 to linear peptides of protein X4 of SARS-CoV Urbani / Binding of serum 37 to linear peptides of protein X4 of SARS-CoV Urbani / Binding of serum 37 to looped/cyclic peptides of protein X4 of SARS-CoV Urbani / Binding of serum 6 to linear peptides of protein X5 of SARS-CoV Urbani / Binding of serum 37 to linear peptides of protein X5 of SARS-CoV Urbani / Binding of serum 37 to looped/cyclic peptides of protein X5 of SARS-CoV Urbani / Binding of serum 6 to linear peptides of protein N of SARS-CoV Urbani / Binding of serum 37 to linear peptides of protein N of SARS-CoV Urbani / Binding of serum 6 to linear peptide (PEPSCAN-ELISA) / Binding of serum 1a to looped/cyclic peptides of protein N of SARS-CoV Urbani / Binding of serum 1b to looped/cyclic peptides of protein N of SARS-CoV Urbani / Binding of serum 2 to looped/cyclic peptides of protein N of SARS-CoV Urbani / Binding of serum 6 to looped/cyclic peptides of protein N of SARS-CoV Urbani / Binding of serum 37 to looped/cyclic peptides of protein N of SARS-CoV Urbani / Binding of serum 62 to looped/cyclic peptides of protein N of SARS-CoV Urbani / Binding of serum London to looped/cyclic peptides of protein N of SARS-CoV Urbani / Binding of serum SARS-green to looped/cyclic peptides of protein N of SARS-CoV Urbani: unit not given here
[2] = test system: control sera (pooled serum of ten healthy LUMC hospital workers; commercial negative donor pooled serum from the Dutch bloodbank); format: binding, human; parameters: Binding of Control serum LUMC to linear peptides / Binding of Control serum Blood-bank to linear peptides / Binding of Control serum LUMC to looped peptides / Binding of Control Serum Blood-Bank to Looped peptides / Binding of Control serum LUMC to linear peptides of the protein M of SARS-CoV Urbani / Binding of Control serum Blood-bank to linear peptides of the protein M of SARS-CoV Urbani / Binding of Control serum LUMC to looped peptides of the protein M of SARS-CoV Urbani / Binding of Control Serum Blood-Bank to Looped peptides of the protein M of SARS-CoV Urbani: unit not given here
[3] = test system: rabbit serum obtained by immunizing a rabbit with the SARS-CoV strain Frankfurt 1; format: binding; parameters: Binding of a rabbit serum to linear peptides / Binding of a rabbit serum to looped peptides / Rabbit serum linear peptides / Rabbit serum looped peptides / Binding of a rabbit serum to linear peptides of protein N of SARS-CoV Urbani (Rabbit serum linear peptides) / Binding of a rabbit serum to looped/cyclic peptides of protein N of SARS-CoV Urbani (Rabbit serum looped peptides): unit not given here

## VGLMWLSYFVASFRL
[1]
  Binding of serum 1a to linear peptides of protein M of SARS-CoV Urbani: 0.6
  Binding of serum 1a to looped/cyclic peptides of protein M of SARS-CoV Urbani: 0.6
  Binding of serum 1b to linear peptides of protein M of SARS-CoV Urbani: 0.5
  Binding of serum 1b to looped/cyclic peptides of protein M of SARS-CoV Urbani: 0.3
  Binding of serum 2 to linear peptides of protein M of SARS-CoV Urbani: 0.4
  Binding of serum 2 to looped/cyclic peptides of protein M of SARS-CoV Urbani: 0.5
  Binding of serum 6 to linear peptides of protein M of SARS-CoV Urbani: 0.5
  Binding of serum 6 to looped/cyclic peptides of protein M of SARS-CoV Urbani: 0.5
  Binding of serum 37 to linear peptides of protein M of SARS-CoV Urbani: 0.4
  Binding of serum 37 to looped/cyclic peptides of protein M of SARS-CoV Urbani: 0.6
  Binding of serum 62 to linear peptides of protein M of SARS-CoV Urbani: 0.4
  Binding of serum 62 to looped/cyclic peptides of protein M of SARS-CoV Urbani: 0.5
  Binding of serum London to linear peptides of protein M of SARS-CoV Urbani: 0.5
  Binding of serum London to looped/cyclic peptides of protein M of SARS-CoV Urbani: 0.2
  Binding of serum SARS-green to linear peptides of protein M of SARS-CoV Urbani: 0.4
  Binding of serum SARS-green to looped/cyclic peptides of protein M of SARS-CoV Urbani: 0.2
  Binding of serum SARS-yellow to linear peptides of protein M of SARS-CoV Urbani: 0.1
  Binding of serum SARS-yellow to looped/cyclic peptides of protein M of SARS-CoV Urbani: 0.8
[2]
  Binding of Control Serum Blood-Bank to Looped peptides of the protein M of SARS-CoV Urbani: 0.6
  Binding of Control serum Blood-bank to linear peptides of the protein M of SARS-CoV Urbani: 0.6
  Binding of Control serum LUMC to linear peptides of the protein M of SARS-CoV Urbani: 0.5
  Binding of Control serum LUMC to looped peptides of the protein M of SARS-CoV Urbani: 0.6
[3]
  Rabbit serum linear peptides: 0.0
  Rabbit serum looped peptides: 0.4

## VGTDSGFAAYNRYRI
[1]
  Binding of serum 1a to linear peptides of protein M of SARS-CoV Urbani: 0.8
  Binding of serum 1a to looped/cyclic peptides of protein M of SARS-CoV Urbani: 0.7
  Binding of serum 1b to linear peptides of protein M of SARS-CoV Urbani: 0.4
  Binding of serum 1b to looped/cyclic peptides of protein M of SARS-CoV Urbani: 0.4
  Binding of serum 2 to linear peptides of protein M of SARS-CoV Urbani: 0.4
  Binding of serum 2 to looped/cyclic peptides of protein M of SARS-CoV Urbani: 0.7
  Binding of serum 6 to linear peptides of protein M of SARS-CoV Urbani: 0.3
  Binding of serum 6 to looped/cyclic peptides of protein M of SARS-CoV Urbani: 0.6
  Binding of serum 37 to linear peptides of protein M of SARS-CoV Urbani: 0.6
  Binding of serum 37 to looped/cyclic peptides of protein M of SARS-CoV Urbani: 0.7
  Binding of serum 62 to linear peptides of protein M of SARS-CoV Urbani: 0.7
  Binding of serum 62 to looped/cyclic peptides of protein M of SARS-CoV Urbani: 0.8
  Binding of serum London to linear peptides of protein M of SARS-CoV Urbani: 0.3
  Binding of serum London to looped/cyclic peptides of protein M of SARS-CoV Urbani: 0.2
  Binding of serum SARS-green to linear peptides of protein M of SARS-CoV Urbani: 0.3
  Binding of serum SARS-green to looped/cyclic peptides of protein M of SARS-CoV Urbani: 0.4
  Binding of serum SARS-yellow to linear peptides of protein M of SARS-CoV Urbani: 0.1
  Binding of serum SARS-yellow to looped/cyclic peptides of protein M of SARS-CoV Urbani: 0.5
[2]
  Binding of Control Serum Blood-Bank to Looped peptides of the protein M of SARS-CoV Urbani: 0.5
  Binding of Control serum Blood-bank to linear peptides of the protein M of SARS-CoV Urbani: 0.7
  Binding of Control serum LUMC to linear peptides of the protein M of SARS-CoV Urbani: 0.3
  Binding of Control serum LUMC to looped peptides of the protein M of SARS-CoV Urbani: 0.6
[3]
  Rabbit serum linear peptides: 0.4
  Rabbit serum looped peptides: 0.0

## VHGYFTEVYYQLEST
[1]
  Binding of serum 1a to linear peptides of protein X1 of SARS-CoV Urbani: 0.7
  Binding of serum 1a to looped/cyclic peptides of protein X1 of SARS-CoV Urbani: 0.5
  Binding of serum 1b to linear peptides of protein X1 of SARS-CoV Urbani: 0.5
  Binding of serum 1b to looped/cyclic peptides of protein X1 of SARS-CoV Urbani: 0.4
  Binding of serum 2 to linear peptides of protein X1 of SARS-CoV Urbani: 0.4
  Binding of serum 2 to looped/cyclic peptides of protein X1 of SARS-CoV Urbani: 0.5
  Binding of serum 6 to linear peptides of protein X1 of SARS-CoV Urbani: 0.4
  Binding of serum 6 to looped/cyclic peptides of protein X1 of SARS-CoV Urbani: 0.3
  Binding of serum 37 to linear peptides of protein X1 of SARS-CoV Urbani: 0.4
  Binding of serum 37 to looped/cyclic peptides of protein X1 of SARS-CoV Urbani: 0.5
  Binding of serum 62 to linear peptides of protein X1 of SARS-CoV Urbani: 0.3
  Binding of serum 62 to looped/cyclic peptides of protein X1 of SARS-CoV Urbani: 0.6
  Binding of serum London to linear peptides of protein X1 of SARS-CoV Urbani: 0.2
  Binding of serum London to looped/cyclic peptides of protein X1 of SARS-CoV Urbani: 0.2
  Binding of serum SARS-green to linear peptides of protein X1 of SARS-CoV Urbani: 0.1
  Binding of serum SARS-green to looped/cyclic peptides of protein X1 of SARS-CoV Urbani: 0.3
  Binding of serum SARS-yellow to linear peptides of protein X1 of SARS-CoV Urbani: 0.3
  Binding of serum SARS-yellow to looped/cyclic peptides of protein X1 of SARS-CoV Urbani: 0.5
[2]
  Binding of Control Serum Blood-Bank to Looped peptides: 0.5
  Binding of Control serum Blood-bank to linear peptides: 0.4
  Binding of Control serum LUMC to linear peptides: 0.5
  Binding of Control serum LUMC to looped peptides: 0.7
[3]
  Binding of a rabbit serum to linear peptides: 0.1
  Binding of a rabbit serum to looped peptides: 0.6

## VILRIGTQVLKTMSL
[1]
  Binding of serum 1a to linear peptides of protein X2: 0.6
  Binding of serum 1a to looped/cyclic peptides of protein X2 of SARS-CoV Urbani: 0.6
  Binding of serum 1b to linear peptides of protein X2: 0.5
  Binding of serum 1b to looped/cyclic peptides of protein X2 of SARS-CoV Urbani: 0.6
  Binding of serum 2 to linear peptides of protein X2: 0.5
  Binding of serum 2 to looped/cyclic peptides of protein X2 of SARS-CoV Urbani: 0.4
  Binding of serum 6 to linear peptides of protein X2: 0.5
  Binding of serum 6 to looped/cyclic peptides of protein X2 of SARS-CoV Urbani: 0.5
  Binding of serum 37 to linear peptides of protein X2: 0.6
  Binding of serum 37 to looped/cyclic peptides of protein X2 of SARS-CoV Urbani: 0.5
  Binding of serum 62 to linear peptides of protein X2: 0.6
  Binding of serum 62 to looped/cyclic peptides of protein X2 of SARS-CoV Urbani: 0.7
  Binding of serum London to linear peptides of protein X2: 0.4
  Binding of serum London to looped/cyclic peptides of protein X2 of SARS-CoV Urbani: 0.2
  Binding of serum SARS-green to linear peptides of protein X2: 0.4
  Binding of serum SARS-green to looped/cyclic peptides of protein X2 of SARS-CoV Urbani: 0.3
  Binding of serum SARS-yellow to linear peptides of protein X2: 0.4
  Binding of serum SARS-yellow to looped/cyclic peptides of protein X2 of SARS-CoV Urbani: 0.4
[2]
  Binding of Control Serum Blood-Bank to Looped peptides: 0.7
  Binding of Control serum Blood-bank to linear peptides: 0.8
  Binding of Control serum LUMC to linear peptides: 0.5
  Binding of Control serum LUMC to looped peptides: 0.7
[3]
  Binding of a rabbit serum to linear peptides: 0.3
  Binding of a rabbit serum to looped peptides: 0.5
